From PMC10016662 (PLOS Pathogens, 2023)
Read-outs that look alike come from different tables or passages of the source.

Biological target: T1, HRTV Gc (Heartland virus, UniProt J3WAX0)
T1 construct: gene GP
Assay: biochemical
Assay type: binding

T1 sequence (J3WAX0 567-999 limits assumed): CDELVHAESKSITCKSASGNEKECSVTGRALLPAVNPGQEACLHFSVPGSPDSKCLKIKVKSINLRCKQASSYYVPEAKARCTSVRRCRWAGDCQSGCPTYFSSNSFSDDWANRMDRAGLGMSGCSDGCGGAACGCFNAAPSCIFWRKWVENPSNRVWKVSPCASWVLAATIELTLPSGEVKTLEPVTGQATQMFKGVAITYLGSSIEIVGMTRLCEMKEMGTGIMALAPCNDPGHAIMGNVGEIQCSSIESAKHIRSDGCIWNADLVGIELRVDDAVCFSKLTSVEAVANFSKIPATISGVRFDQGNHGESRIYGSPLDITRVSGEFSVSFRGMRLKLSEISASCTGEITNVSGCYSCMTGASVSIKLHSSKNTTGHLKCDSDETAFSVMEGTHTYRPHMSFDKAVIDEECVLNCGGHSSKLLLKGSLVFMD

Row | Compound | Kd [µM] | Kd (read-out: KD) [µM]
1 | CCCCCCCC/C=C\CCCCCCCC(=O)OC[C@H](COP(=O)([O-])OCC[N+](C)(C)C)OC(=O)CCCCCCC/C=C\CCCCCCCC [DOPC] | 2.1 | –
2 | GalCer | – | 0.6
3 | GlcCer | – | < 0.001
